Source: patent publication US4782159A, “Process for preparing beta-methyl-gamma-oxo-4-(4-oxo-1(4H)-pyridinyl) derivative of benzene butanoic acid” (Smith Kline & French Laboratories Limited, priority 1986, dated 1988)
“Also recorded” adds a separate entry of the source.

Experiments:
PDE (Peak III) [1] = target: T1, PDE (Peak III) (Felis catus, UniProt A0ABI7YEY2); assay: Substrate kinetics of PDE (Peak III) from cat heart; type: biochemical; parameters: DEAE-Sepharose Peak III from high-speed supernatant of cat heart homogenate
T1 sequence (A0ABI7YEY2 1-1144): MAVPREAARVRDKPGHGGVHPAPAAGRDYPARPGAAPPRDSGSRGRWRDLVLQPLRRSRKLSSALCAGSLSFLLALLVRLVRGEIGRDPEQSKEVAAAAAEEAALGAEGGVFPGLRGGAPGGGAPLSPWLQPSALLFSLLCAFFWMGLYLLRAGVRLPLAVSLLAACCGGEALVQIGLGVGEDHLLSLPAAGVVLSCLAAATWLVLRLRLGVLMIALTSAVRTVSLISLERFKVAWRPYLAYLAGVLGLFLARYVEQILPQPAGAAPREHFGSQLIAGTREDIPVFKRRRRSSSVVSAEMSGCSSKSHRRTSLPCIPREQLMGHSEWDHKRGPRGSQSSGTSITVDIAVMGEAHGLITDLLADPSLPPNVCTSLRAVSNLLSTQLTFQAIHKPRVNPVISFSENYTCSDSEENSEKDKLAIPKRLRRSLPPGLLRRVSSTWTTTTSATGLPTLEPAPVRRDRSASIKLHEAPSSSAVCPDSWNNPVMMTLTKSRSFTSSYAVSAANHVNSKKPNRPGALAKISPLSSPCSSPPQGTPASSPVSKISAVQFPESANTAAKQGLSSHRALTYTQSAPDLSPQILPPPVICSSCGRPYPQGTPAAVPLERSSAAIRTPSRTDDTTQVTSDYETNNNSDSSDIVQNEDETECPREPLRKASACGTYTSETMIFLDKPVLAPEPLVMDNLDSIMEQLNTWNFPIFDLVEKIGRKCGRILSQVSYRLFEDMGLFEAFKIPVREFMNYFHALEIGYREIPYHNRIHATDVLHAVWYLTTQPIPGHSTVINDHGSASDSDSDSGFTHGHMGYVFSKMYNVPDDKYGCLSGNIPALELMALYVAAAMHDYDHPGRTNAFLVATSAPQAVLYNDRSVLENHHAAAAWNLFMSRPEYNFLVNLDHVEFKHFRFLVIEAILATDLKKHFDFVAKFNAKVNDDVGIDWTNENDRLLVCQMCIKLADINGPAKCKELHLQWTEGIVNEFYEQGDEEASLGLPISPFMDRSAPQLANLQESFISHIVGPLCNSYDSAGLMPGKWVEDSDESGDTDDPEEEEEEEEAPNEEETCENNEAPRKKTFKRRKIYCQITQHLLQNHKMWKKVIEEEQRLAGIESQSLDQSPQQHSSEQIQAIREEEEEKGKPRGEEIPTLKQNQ
Protocol: (§2) The enzyme was assayed by incubation at 37° for 4-30 min in 50 mM Tris, 5 mM MgCl2, pH 7.5 with [3-H] cyclic nucleotide (4×10^5 disintegrations min^-1) and [14-C] nucleotide 5' monophosphate (3×10^3 disintegrations min^-1). The assay was stopped by boiling, and the [3-H] […] The reaction mixture was diluted with 0.5 ml 100 mM HEPES (N-2-Hydroxyethylpiperazine-N'-2-ethanesulfonic acid), 100 mM NaCl, pH 8.5, and applied to the column. […] The recovery of product as judged by [14-C] recovery was approximately 80%. All assays were linear with time of incubation and concentration of enzyme over the range used in these experiments.

PDE (Peak II) [2] = target: T2, PDE (Peak II) (Felis catus, UniProt A0ABI7ZLD2); assay: Substrate kinetics of PDE (Peak II) from cat heart; type: biochemical
T2 construct: DEAE-Sepharose CL-6B Peak II of cat heart high-speed supernatant
T2 sequence (A0ABI7ZLD2 1-921): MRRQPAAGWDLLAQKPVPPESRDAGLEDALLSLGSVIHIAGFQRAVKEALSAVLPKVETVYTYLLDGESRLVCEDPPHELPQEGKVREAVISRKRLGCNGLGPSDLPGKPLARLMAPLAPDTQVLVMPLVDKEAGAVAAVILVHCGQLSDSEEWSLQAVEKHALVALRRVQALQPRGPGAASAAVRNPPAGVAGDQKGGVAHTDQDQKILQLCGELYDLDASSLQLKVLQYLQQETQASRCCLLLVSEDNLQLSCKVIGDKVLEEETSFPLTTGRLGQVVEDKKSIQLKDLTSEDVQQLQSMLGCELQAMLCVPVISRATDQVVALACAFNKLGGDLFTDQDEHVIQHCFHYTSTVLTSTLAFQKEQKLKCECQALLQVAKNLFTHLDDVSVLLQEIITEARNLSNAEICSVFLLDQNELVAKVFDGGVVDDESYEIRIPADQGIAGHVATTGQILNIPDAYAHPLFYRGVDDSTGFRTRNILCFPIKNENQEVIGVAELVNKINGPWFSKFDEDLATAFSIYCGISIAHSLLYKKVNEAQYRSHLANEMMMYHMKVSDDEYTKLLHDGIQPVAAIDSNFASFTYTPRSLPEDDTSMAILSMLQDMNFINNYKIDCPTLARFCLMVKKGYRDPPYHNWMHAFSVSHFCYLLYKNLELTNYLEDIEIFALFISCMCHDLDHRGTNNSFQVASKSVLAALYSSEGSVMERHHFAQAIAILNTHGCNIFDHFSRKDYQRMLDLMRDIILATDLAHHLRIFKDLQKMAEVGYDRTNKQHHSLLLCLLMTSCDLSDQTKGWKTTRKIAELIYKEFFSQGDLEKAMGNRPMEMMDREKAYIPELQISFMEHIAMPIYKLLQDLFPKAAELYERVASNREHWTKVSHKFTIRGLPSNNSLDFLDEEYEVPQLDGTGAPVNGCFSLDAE
Protocol: as §2

PDE (Peak I) [3] = assay: Substrate kinetics of PDE (Peak I) from cat heart; type: biochemical; settings: for Relative Vmax: PDE (Peak I)
PDE (Peak III) [4] = target: T1, PDE (Peak III); assay: Inhibition of Phosphodiesterases, PDE (Peak III)
Protocol: as §2

[5] = system: left ventricular dp/dt max; assay: Cardiac Stimulant Activity--In vivo (Conscious Dogs); parameters: species or system dog
Protocol: The compound of formula (2) increased left ventricular dp/dt max in conscious dogs after intravenous administration at doses below 0.02 mg/kg. Oral administration caused positive inotropic responses at doses of 0.05 mg/kg and below.

[6] = system: platelet aggregation induced by the endoperoxide mimetic U44069; assay: Platelet Aggregation Inhibition--In vitro; type: cell-based; settings: U44069 (10 μM), aspirin-treated (100 μM) human platelet rich plasma
Protocol: Platelet rich plasma (PRP) was prepared from whole human blood anti-coagulated with 1/10 volume acid citrate dextrose. The citrated blood was centrifuged at 700 g for 5 minutes and the PRP removed. The remaining red cells and plasma were centrifuged for a further 15 minutes at 900 g and the platelet poor plasma removed. This was then mixed with the PRP to give a final platelet count of 2-3×10^8 cells/ml.
PRP was divided into 0.5 ml aliquots which were preincubated for 2 minutes to 37° C. before being placed in the sample chamber of an HG aggregometer connected to a Teckman chart recorder.
Aspirin was added to a concentration of 100 μM.
Aggregation to the endoperoxide mimetic U44069 (9,11-epoxymethano-PGH2) was then examined in the absence and presence of a range of concentrations of the compound of formula (2).

[7] = system: left ventricular dp/dt max (index of left ventricular contractility); assay: Cardiac Stimulant Activity--In vivo (Anaesthetised Cats); parameters: species or system cat; settings: intravenous
Description: In anaesthetised cats pretreated with a ganglion blocker (mecamylamine or pempidine) and propranolol, the compound of formula (2) causes increases in left ventricular dp/dt max (this is an index of left ventricular contractility) when administered intravenously.

PDE (Peak II) [8] = target: T2, PDE (Peak II); assay: Inhibition of Phosphodiesterases, PDE (Peak II); type: biochemical, cat
Description: (§1) This specificity is an indication that the compound is likely to have a force/rate selectivity in its cardiac stimulant activity with a low potential for inducing arrythmias.

[9] = system: histamine-induced bronchoconstriction; assay: Bronchodilatation--In vivo (histamine-induced bronchoconstriction); parameters: species or system guinea-pig, Dunkin Hartley strain; settings: i.v., one minute before histamine challenge
Protocol: Male guinea-pigs of the Dunkin Hartley strain (530 g±6 g) were anaesthetised with Sagatal (pentobarbital sodium) (90 mg/kg i.p.). Airway resistance was measured using a modification of the classical Konzett-Rossler technique (Versuchsanordnung zu Untersuchungen an der Bronchialmuskulatur. Naunyn-Schmiedebergs Arch. Exp. Path. Pharmak., 195: pp 71-74, (1940)). A dose of histamine which gave approximately 150% increase in airway resistance was selected for i.v. administration. Bolus doses of the compound of formula (2) was administered (i.v.) one minute before the histamine challenge.

PDE (Peak I) [10] = assay: Inhibition of Phosphodiesterases, PDE (Peak I); type: biochemical, cat; settings: at up to 10^-4 M
Description: as §1

In the case of `Nc1nc2c(ncn2[C@@H]2O[C@@H]3COP(=O)(O)O[C@H]3[C@H]2O)c(=O)[nH]1` [cyclic GMP], the “Relative Vmax” value (PDE (Peak III) [1]) is reported as 0.4, the “Relative Vmax” value (PDE (Peak II) [2]; PDE (Peak II)) is reported as 0.2 and the “affinity of PDE (Peak II) for substrate” value (PDE (Peak II) [2]; in words) is reported as “relatively low affinities”. The “Relative Vmax” value (PDE (Peak I) [3]; 50 μg/ml calmodulin added) was 7.2, the “Relative Vmax” value (PDE (Peak I) [3]; without calmodulin) was 1.1 and the “affinity of PDE (Peak I) for substrate” value (PDE (Peak I) [3]; in words) was “high affinity”.
With `Nc1cc(-c2ccncc2)c[nH]c1=O` [Amrinone, reference compound] the IC50 (PDE (Peak III) [4]; PDE (Peak III), 1 μM cyclic AMP) was 51.8 µM, the “activity in comparison with the compound of formula (2)” value [5] was “less active” and the “duration in comparison with the compound of formula (2)” value [5] was “shorter duration”.
In the case of `CC1CC(=O)NN=C1c1ccc(-n2ccc(=O)cc2)cc1` (centres unmarked) [formula (2)], the IC50 [6] is reported as 0.08 ± 0.01 µM, the “selectivity for PDE (Peak III) / phosphodiesterase type III” value (PDE (Peak III) [4]; versus PDE (Peak I) and PDE (Peak II)) is reported as “selective phosphodiesterase type III inhibitor; also recorded: selective PDE (Peak III) inhibitor” and the ED50 ([7]; Felis catus, read-out: ED50 (dose to increase left ventricular dp/dt max by 50%), anaesthetised cats pretreated with ganglion blocker and propranolol) is reported as 0.04 µmol/kg. The “changes in blood pressure or heart rate” value ([7]; anaesthetised cats) was “Minimal changes”, the “inhibition of PDE (Peak II)” value (PDE (Peak II) [8]) was “either no or weak inhibition” and the ED50 ([9]; Cavia porcellus, iv, read-out: ED50 (dose which reduced the histamine bronchoconstriction by 50%)) was 1.8 µmol/kg. For the same compound, the minimal effective dose ([9]; Cavia porcellus, read-out: threshold dose) was 0.01 µmol/kg, the “effect on histamine-induced bronchoconstriction” value [9] was “reduced the histamine-induced bronchoconstriction” and the “inhibition of PDE (Peak I)” value (PDE (Peak I) [10]) was “no inhibition”. For the same compound, the “changes in blood pressure or heart rate” value [5] was “without changes” and the force-rate selectivity [5] was “particularly beneficial”.
